According to publication PMC7461649 (Journal of medicinal chemistry, 2020):
Like-named read-outs stand apart in the source and are kept apart here. One block for each compound: values may come before it.

Tests used:
TnmH [1] = target: T1, TnmH (Streptomyces sp. CB03234, UniProt A0A125SA05); assay: biochemical
TnmH [2] = target: T1, TnmH; settings: saturating SAM (1 mM)
[3] = target: TnmH (Streptomyces sp. CB03234); assay: SEC

Compound: C[S+](CC[C@H](N)C(=O)O)C[C@H]1O[C@@H](n2cnc3c(N)ncnc32)[C@H](O)[C@@H]1O (stereo partly shown) [SAM]
Km (TnmH [1]): 62 ± 4.8 µM

Compound: COC(=O)C(O)C(C)(O)[C@@]12OC13c1cc(O)c4c(c1N[C@H]2C#C/C=C\C#C[C@H]3O)C(=O)c1c(ccc(O)c1O)C4=O (stereo partly shown) [compound 11, TNM C]
Km (TnmH [2]; 11 varied 7.8 to 500 μM, C-7 hydroxyl methylation to 13): 31.1 ± 4.1 µM

Compound: TNM F [compound 10]
Km (TnmH [2]; 10 varied 7.8 to 500 μM, C-7 hydroxyl methylation to 12): 11.7 ± 1.2 µM

stoichiometry N [3]: 2
Compound: TnmH (enzyme)
